Experimental data: ChEMBL document CHEMBL1909294, “Translating clinical findings into knowledge in drug safety evaluation--drug induced liver injury prediction system (DILIps)” (PLoS Comput Biol, 2011)

Assays:
[1] = system: Hepatotoxicity;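 as to HepSE cholelithiasis: hepatic side effect score for cholelithiasis, drawn from the DILIps training data for predicting drug-induced liver injury; call rule not given here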;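 as to HepSE cirrhosis: cirrhosis hepatic side effect score taken from the DILIps (drug-induced liver injury prediction) training set; call rule not given here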;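 as to HepSE hepatic necrosis: score of hepatic side effects for hepatic necrosis, drawn from the training data of DILIps, a prediction system for drug-induced liver injury; call rule not given here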;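 as to HepSE hepatomegaly: hepatic side effect score for hepatomegaly, taken from the training set of the DILIps drug-induced liver injury prediction system; call rule not given here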;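 as to HepSE jaundice: Jaundice-related hepatic side-effect score drawn from the training data of the DILIps (drug-induced liver injury prediction system); call rule not given here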;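 as to HepSE liver function tests abnormal: hepatic side effect score taken from the DILIps (drug-induced liver injury prediction system) training data, here covering abnormal liver function test findings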
[2] = system: Hepatotoxicity; remark: listed apart in the source;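 as to HepSE cholelithiasis: hepatic side effect score for cholelithiasis, drawn from the DILIps training data for predicting drug-induced liver injury; call rule not given here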;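 as to HepSE cirrhosis: cirrhosis hepatic side effect score taken from the DILIps (drug-induced liver injury prediction) training set; call rule not given here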;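 as to HepSE hepatic necrosis: score of hepatic side effects for hepatic necrosis, drawn from the training data of DILIps, a prediction system for drug-induced liver injury; call rule not given here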;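 as to HepSE hepatomegaly: hepatic side effect score for hepatomegaly, taken from the training set of the DILIps drug-induced liver injury prediction system; call rule not given here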;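 as to HepSE jaundice: Jaundice-related hepatic side-effect score drawn from the training data of the DILIps (drug-induced liver injury prediction system); call rule not given here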;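 as to HepSE liver function tests abnormal: hepatic side effect score taken from the DILIps (drug-induced liver injury prediction system) training data, here covering abnormal liver function test findings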
[3] = system: Hepatotoxicity; remark: listed apart in the source;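 as to HepSE cholelithiasis: hepatic side effect score for cholelithiasis, drawn from the DILIps training data for predicting drug-induced liver injury; call rule not given here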;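 as to HepSE cirrhosis: cirrhosis hepatic side effect score taken from the DILIps (drug-induced liver injury prediction) training set; call rule not given here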;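 as to HepSE hepatic necrosis: score of hepatic side effects for hepatic necrosis, drawn from the training data of DILIps, a prediction system for drug-induced liver injury; call rule not given here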;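 as to HepSE jaundice: Jaundice-related hepatic side-effect score drawn from the training data of the DILIps (drug-induced liver injury prediction system); call rule not given here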;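 as to HepSE liver function tests abnormal: hepatic side effect score taken from the DILIps (drug-induced liver injury prediction system) training data, here covering abnormal liver function test findings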
[4] = system: Hepatotoxicity; remark: listed apart in the source;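 as to HepSE cholelithiasis: hepatic side effect score for cholelithiasis, drawn from the DILIps training data for predicting drug-induced liver injury; call rule not given here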;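 as to HepSE cirrhosis: cirrhosis hepatic side effect score taken from the DILIps (drug-induced liver injury prediction) training set; call rule not given here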;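 as to HepSE hepatic necrosis: score of hepatic side effects for hepatic necrosis, drawn from the training data of DILIps, a prediction system for drug-induced liver injury; call rule not given here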;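 as to HepSE jaundice: Jaundice-related hepatic side-effect score drawn from the training data of the DILIps (drug-induced liver injury prediction system); call rule not given here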;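 as to HepSE liver function tests abnormal: hepatic side effect score taken from the DILIps (drug-induced liver injury prediction system) training data, here covering abnormal liver function test findings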
[5] = system: Hepatotoxicity; remark: listed apart in the source
[6] = system: Hepatotoxicity; remark: listed apart in the source
[7] = system: Hepatotoxicity; remark: listed apart in the source
[8] = system: Hepatotoxicity; remark: listed apart in the source
[9] = system: Hepatotoxicity; remark: listed apart in the source
[10] = system: Hepatotoxicity; remark: listed apart in the source
[11] = system: Hepatotoxicity; remark: listed apart in the source
[12] = system: Hepatotoxicity; remark: listed apart in the source
[13] = system: Hepatotoxicity; remark: listed apart in the source
[14] = system: Hepatotoxicity; remark: listed apart in the source

CC1(C)O[C@@H]2C[C@H]3[C@@H]4C[C@H](F)C5=CC(=O)C=C[C@]5(C)[C@@]4(F)[C@@H](O)C[C@]3(C)[C@]2(C(=O)CO)O1 [FLUOCINOLONE ACETONIDE]
0: HepSE_cholelithiasis [1] | HepSE_cirrhosis [2] | HepSE_hepatic necrosis [3] | HepSE_liver function tests abnormal [4] | HepSE_hepatitis [5] | HepSE_jaundice [6] | HepSE_hepatomegaly [7] | HepSE_elevated liver function tests [8] | HepSE_liver fatty [9] | HepSE_cholecystitis [10] | HepSE_liver disease [11] | HepSE_Combined Scores [12] | HepSE_bilirubinemia [13] | HepSE_hepatic failure [14]

CC(=O)OCC(=O)[C@@]12OC(C)(C)O[C@@H]1C[C@H]1[C@@H]3C[C@H](F)C4=CC(=O)C=C[C@]4(C)[C@@]3(F)[C@@H](O)C[C@@]12C [FLUOCINONIDE]
0: HepSE_cholelithiasis [1] | HepSE_cirrhosis [2] | HepSE_hepatic necrosis [3] | HepSE_liver function tests abnormal [4] | HepSE_hepatitis [5] | HepSE_jaundice [6] | HepSE_hepatomegaly [7] | HepSE_elevated liver function tests [8] | HepSE_liver fatty [9] | HepSE_cholecystitis [10] | HepSE_liver disease [11] | HepSE_Combined Scores [12] | HepSE_bilirubinemia [13] | HepSE_hepatic failure [14]

O=C1OC2(c3ccc(O)cc3Oc3cc(O)ccc32)c2ccccc21 [FLUORESCEIN]
0: HepSE_cholelithiasis [1] | HepSE_cirrhosis [2] | HepSE_hepatic necrosis [3] | HepSE_liver function tests abnormal [4] | HepSE_hepatitis [5] | HepSE_jaundice [6] | HepSE_hepatomegaly [7] | HepSE_elevated liver function tests [8] | HepSE_liver fatty [9] | HepSE_cholecystitis [10] | HepSE_liver disease [11] | HepSE_Combined Scores [12] | HepSE_bilirubinemia [13] | HepSE_hepatic failure [14]

CC(=O)[C@@]1(O)CC[C@H]2[C@@H]3C[C@H](C)C4=CC(=O)C=C[C@]4(C)[C@@]3(F)[C@@H](O)C[C@@]21C [FLUOROMETHOLONE]
0: HepSE_cholelithiasis [1] | HepSE_cirrhosis [2] | HepSE_hepatic necrosis [3] | HepSE_liver function tests abnormal [4] | HepSE_hepatitis [5] | HepSE_jaundice [6] | HepSE_hepatomegaly [7] | HepSE_elevated liver function tests [8] | HepSE_liver fatty [9] | HepSE_cholecystitis [10] | HepSE_liver disease [11] | HepSE_Combined Scores [12] | HepSE_bilirubinemia [13] | HepSE_hepatic failure [14]

O=c1[nH]cc(F)c(=O)[nH]1 [FLUOROURACIL]
0: HepSE_cholelithiasis [1] | HepSE_cirrhosis [2] | HepSE_hepatic necrosis [3] | HepSE_liver function tests abnormal [4] | HepSE_hepatitis [5] | HepSE_jaundice [6] | HepSE_hepatomegaly [7] | HepSE_elevated liver function tests [8] | HepSE_liver fatty [9] | HepSE_cholecystitis [10] | HepSE_liver disease [11] | HepSE_Combined Scores [12] | HepSE_bilirubinemia [13] | HepSE_hepatic failure [14]
